Melting point data for 31 compounds are collected here from US6391907B1, “Indoline derivatives” (American Home Products Corporation, priority 1999, dated 2002).

SMILES strings stand for the structures. A value given as a limit tells only on which side of the number the result lay.

As usually defined, the melting point is the temperature, or range, at which the solid turns liquid. With `O=C1Nc2ccc(-c3cccc(Cl)c3)cc2C12OCCO2` [Example 11, 5′-(3-Chlorophenyl)spiro[1,3-dioxolane-2,3′-[3H]indol]-2′(1′H)-one], the melting point was 159 to 161 °C.

Compound `O=C1Nc2ccc(-c3cccc4[nH]ccc34)cc2C12CCCCC2` [Example 46, 5′-(1H-Indol-4-yl)spiro[cyclohexane-1,3′-[3H]indol]-2′(1′H)-one] yielded a melting point of 211 to 213 °C.

The compound `CC1(C)C(=O)Nc2ccc(-c3cccc(C#N)c3)cc21` [Example 67, 3-(3,3-Dimethyl-2-oxo-2,3-dihydro-1H-indol-5-yl)-benzonitrile] displayed a melting point of 200.2 to 202 °C.

`CC1(C)C(=O)Nc2ccc(-c3coc(C#N)c3)cc21` [Example 72, 4-(3,3-Dimethyl-2-oxo-2,3-dihydro-1H-indol-5-yl)-furan-2-carbonitrile] had a melting point of 199.6 to 201.4 °C.

Take `N#Cc1ccc(-c2ccc3c(c2)C2(CCCCC2)C(=O)N3)cc1F` [Example 63, 5′-(4-Cyano-3-fluorophenyl)-spiro[cyclohexane-1,3′-[3H]indol]-2′(1′H)-one]: the melting point lay within 258 to 260 °C.

In the case of `O=C1Nc2ccc(-c3cccc(F)c3)cc2C12CCCCC2` [Example 21, 5′-(3-Fluorophenyl)spiro[cyclohexane-1,3′-[3H]indol]-2′(1′H)-one], the melting point lay in the range of 171 to 172 °C.

As for `N#Cc1cc(F)cc(-c2cc(N)c3c(c2)C2(CCCCC2)C(=O)N3)c1` [Example 53, 3-(7′-Amino-1′,2′-dihydro-2′-oxospiro[cyclohexane-1,3′-[3H]indol]-5′-yl)-5-fluoro-benzonitrile], the melting point was in the range of 241 to 243 °C.

Turning to `CC1(C)C(=O)Nc2ccc(-c3ccc([N+](=O)[O-])s3)cc21` [Example 83, 3,3-Dimethyl-5-(5-nitro-thiophene-2-yl)-1,3-dihydro-indol-2-one], the melting point lay in the range of 223 to 225 °C.

Turning to `CCC1(CC)C(=O)Nc2ccc(-c3cccc(Cl)c3)cc21` [Example 7, 5-(3-Chloro-phenyl)-3,3-diethyl-1,3-dihydro-indol-2-one], the melting point lay in the range of 195 to 197 °C.

As to `Cn1c(-c2ccc3c(c2)C2(CCCCC2)C(=O)N3)ccc1[N+](=O)[O-]` [Example 45, 5′-(5-Nitro-1-methyl-pyrrol-2-yl)spiro[cyclohexane-1,3′-[3H]indol]-2′(1′H)-one], the melting point stood at 210 °C.

The compound `O=C1Nc2ccc(-c3cccc([N+](=O)[O-])c3)cc2C12CCCCC2` [Example 30, 5′-(3-Nitrophenyl)spiro[cyclohexane-1,3′-[3H]indol]-2′(1′H)-one] showed a melting point of 196 to 198 °C.

`CC1(C)C(=O)Nc2ccc(-c3cccc(C#N)c3F)cc21` [Example 87, 3(3,3-Dimethyl-2-oxo-2,3-dihydro-1H-indol-5-yl)-2-fluoro-benzonitrile] yielded a melting point of 270 to 272 °C.

For the compound `CCC1C(=O)Nc2ccc(-c3cccc(Cl)c3)cc21` (stereo not shown) [Example 6, 5-(3-Chloro-phenyl)-3-ethyl-1,3dihydro-indol-2-one], the melting point lay in the range of 118 to 120 °C.

As for `Cc1cc(C#N)sc1-c1ccc2c(c1)C(C)(C)C(=O)N2` [Example 69, 5(3,3-Dimethyl-2-oxo-2,3dihydro-1H-indol-5-yl)-4methyl thiophene-2-carbonitrile], the melting point is 192.3 to 193 °C.

Regarding `CC1(C)C(=O)Nc2ccc(-c3cccc(Cl)c3)cc21` [Example 4, 5-(3-Chloro-phenyl)-3,3-dimethyl-1,3dihydro-indol-2-one], the melting point is 188 to 189 °C.

`CC1(C)C(=O)Nc2ccc(-c3cc(F)cc(Cl)c3)cc21` [Example 70, 5-(3-Chloro-5-fluoro-phenyl)-3,3-dimethyl-1,3-dihydro-indol-2-one] showed a melting point of 205.9 to 206.8 °C.

In turn, `O=C1Cc2cc(-c3cccc(Cl)c3)ccc2N1` [Example 10, 5-(3-Chloro-phenyl)-1,3-dihydro-indol-2-one] yielded a melting point of 169 to 171 °C.

As for `O=C1Cc2cc(-c3cccc([N+](=O)[O-])c3)ccc2N1` [Example 1, 5-(3-Nitro-phenyl)-1,3-dihydro-indol-2-one], the melting point is 269 °C.

`O=C1Nc2ccc(-c3cc(F)cc(F)c3)cc2C12CCCCC2` [Example 22, 5′-(3,5-Difluorophenyl)spiro[cyclohexane1,3′-[3H]indol]-2′(1′H)-one] had a melting point of 180 to 183 °C.

As for `CC#CC1(OC)C(=O)Nc2ccc(-c3cccc(Cl)c3)cc21` (stereo not shown) [Example 9, 5-(3-Chloro-phenyl)-3-methoxy-3-prop-1-ynyl-1,3-dihydro-indol-2-one], the melting point was > 190 °C (dec.).

In the case of `CC1(C)C(=O)Nc2ccc(C3([N+](=O)[O-])C=CC=N3)cc21` (stereo not shown) [Example 85, 2-(3,3-Dimethyl-2-oxo-2,3-dihydro-1H-indol-5-yl)-2-nitro-pyrrole], the melting point is 293.9 to 294.2 °C (dec.).

Compound `N#Cc1cc(F)cc(-c2cc([N+](=O)[O-])c3c(c2)C2(CCCCC2)C(=O)N3)c1` [Example 52, 3-(7′-Nitro-1′,2′-dihydro-2′-oxospiro[cyclohexane-1,3′-[3H]indol]-5′-yl)-5-fluoro-benzonitrile] showed a melting point of 196 °C.

Turning to `N#Cc1cc(F)cc(-c2cc(Br)c3c(c2)C2(CCCCC2)C(=O)N3)c1` [Example 51, 3-(7′-Bromo-1′,2′-dihydro-2′-oxospiro[cyclohexane-1,3′-[3H]indol]-5′-yl)-5-fluoro-benzonitrile], the melting point was 217 °C.

In turn, `N#Cc1csc(-c2ccc3c(c2)C2(CCCCC2)C(=O)N3)c1` [Example 38, 5-(1′,2′-Dihydro-2′-oxospiro[cyclohexane-1,3′-[3H]indol]-5′-yl)-thiophene-3-carbonitrile] showed a melting point of 188 to 190 °C.

For the compound `O=C1Nc2ccc(-c3cc(F)cc(Cl)c3)cc2C12CCCCC2` [Example 27, 5′-(3-Chloro-5-fluorophenyl)spiro[cyclohexane-1,3′-[3H]indol]-2′(1′H)-one], the melting point was in the range of 178 to 180 °C.

For `N#Cc1cc(-c2ccc3c(c2)C2(CCCC2)C(=O)N3)ccc1F`, the melting point lay in the range of 264 to 266 °C.

Compound `CC1(C)C(=O)Nc2ccc(-c3ccc(F)c(Cl)c3)cc21` [Example 66, 5-(3-Chloro-4-fluoro-phenyl)-3,3-dimethyl1,3-dihydro-indol-2-one] displayed a melting point of 206.5 to 207.8 °C.

As to `N#Cc1coc(-c2ccc3c(c2)C2(CCCCC2)C(=O)N3)c1` [Example 40, 5-(1′,2′-Dihydro-2′-oxospiro[cyclohexane-1,3′-[3H]indol]-5′-yl)-3-furancarbonitrile], the melting point lay within 243 to 245 °C.

In turn, `O=C1Nc2ccc(-c3cccc([N+](=O)[O-])c3)cc2C12CCCC2` [Example 13, 5′-(3-nitrophenyl)spiro[cyclopentane-1,3′-[3H]indol]2′(1′H)-one] returned a melting point of 238 to 240 °C.

In turn, `O=C1Nc2ccc(-c3cccc(Cl)c3)cc2C12OCCCO2` [Example 12, 5′-(3-Chlorophenyl)spiro[1,3-dioxane-2,3-[3H]indol]-2′(1′H)-one] registered a melting point of 242 to 244 °C.

The compound `CC1(C)C(=O)Nc2ccc(-c3cc(F)cc([N+](=O)[O-])c3)cc21` [Example 71, 5-(3-Fluoro-5-nitro-phenyl)-3,3-dimethyl-1,3-dihydro-indol-2-one] had a melting point of 231.2 to 232.7 °C.
